Source: ChEMBL document CHEMBL1649267, “Molecular epidemiology and mechanisms of carbapenem resistance in Pseudomonas aeruginosa” (2009)
Converted amounts (≈) assume the structure as drawn.

Assays:
Pseudomonas aeruginosa [1] = assay type: functional; settings: isolate Paebeta-11
Pseudomonas aeruginosa [2] = assay type: functional; settings: isolate Paebeta-13
Pseudomonas aeruginosa [3] = assay type: functional; settings: isolate Paebeta-05
Pseudomonas aeruginosa [4] = assay type: functional; settings: isolate Paebeta-18
Pseudomonas aeruginosa [5] = assay type: functional; settings: isolate Paebeta-20
Pseudomonas aeruginosa [6] = assay type: functional; settings: isolate Paebeta-14
Pseudomonas aeruginosa [7] = assay type: functional; settings: isolate Paebeta-12
Pseudomonas aeruginosa [8] = assay type: functional; settings: isolate Paebeta-30
Pseudomonas aeruginosa [9] = assay type: functional; settings: isolate Paebeta-04
Pseudomonas aeruginosa [10] = assay type: functional; settings: isolate Paebeta-25
Pseudomonas aeruginosa [11] = assay type: functional; settings: isolate Paebeta-31
Pseudomonas aeruginosa [12] = assay type: functional; settings: isolate Paebeta-16
Pseudomonas aeruginosa [13] = assay type: functional; settings: isolate Paebeta-08
Pseudomonas aeruginosa [14] = assay type: functional; settings: isolate Paebeta-09
Pseudomonas aeruginosa [15] = assay type: functional; settings: isolate Paebeta-07
Pseudomonas aeruginosa [16] = assay type: functional; settings: isolate Paebeta-21
Pseudomonas aeruginosa [17] = assay type: functional; settings: isolate Paebeta-08; remark: listed apart in the source
Pseudomonas aeruginosa [18] = assay type: functional; settings: isolate Paebeta-17
Pseudomonas aeruginosa [19] = assay type: functional; settings: isolate Paebeta-16; remark: listed apart in the source
Pseudomonas aeruginosa [20] = assay type: functional; settings: isolate Paebeta-14; remark: listed apart in the source
Pseudomonas aeruginosa [21] = assay type: functional; settings: isolate Paebeta-32
Pseudomonas aeruginosa [22] = assay type: functional; settings: isolate Paebeta-15
Pseudomonas aeruginosa [23] = assay type: functional; settings: isolate Paebeta-03
Pseudomonas aeruginosa [24] = assay type: functional; settings: isolate Paebeta-01
Pseudomonas aeruginosa [25] = assay type: functional; settings: isolate Paebeta-04; remark: listed apart in the source
Pseudomonas aeruginosa [26] = assay type: functional; settings: isolate Paebeta-26
Pseudomonas aeruginosa [27] = assay type: functional; settings: isolate Paebeta-13; remark: listed apart in the source
Pseudomonas aeruginosa [28] = assay type: functional; settings: isolate Paebeta-10
Pseudomonas aeruginosa [29] = assay type: functional; settings: isolate Paebeta-09; remark: listed apart in the source
Pseudomonas aeruginosa [30] = assay type: functional; settings: isolate Paebeta-28
Pseudomonas aeruginosa [31] = assay type: functional; settings: isolate Paebeta-26; remark: listed apart in the source
Pseudomonas aeruginosa [32] = assay type: functional; settings: isolate Paebeta-29
Pseudomonas aeruginosa [33] = assay type: functional; settings: isolate Paebeta-30; remark: listed apart in the source
Pseudomonas aeruginosa [34] = assay type: functional; settings: isolate Paebeta-32; remark: listed apart in the source
Pseudomonas aeruginosa [35] = assay type: functional; settings: isolate Paebeta-27
Pseudomonas aeruginosa [36] = assay type: functional; settings: isolate Paebeta-24
Pseudomonas aeruginosa [37] = assay type: functional; settings: isolate Paebeta-25; remark: listed apart in the source
Pseudomonas aeruginosa [38] = assay type: functional; settings: isolate Paebeta-05; remark: listed apart in the source
Pseudomonas aeruginosa [39] = assay type: functional; settings: isolate Paebeta-10; remark: listed apart in the source
Pseudomonas aeruginosa [40] = assay type: functional; settings: isolate Paebeta-06
Pseudomonas aeruginosa [41] = assay type: functional; settings: isolate Paebeta-18; remark: listed apart in the source
Pseudomonas aeruginosa [42] = assay type: functional; settings: isolate Paebeta-28; remark: listed apart in the source
Pseudomonas aeruginosa [43] = assay type: functional; settings: isolate Paebeta-29; remark: listed apart in the source
Pseudomonas aeruginosa [44] = assay type: functional; settings: isolate Paebeta-20; remark: listed apart in the source
Pseudomonas aeruginosa [45] = assay type: functional; settings: isolate Paebeta-01; remark: listed apart in the source
Pseudomonas aeruginosa [46] = assay type: functional; settings: isolate Paebeta-15; remark: listed apart in the source
Pseudomonas aeruginosa [47] = assay type: functional; settings: isolate Paebeta-02
Pseudomonas aeruginosa [48] = assay type: functional; settings: isolate Paebeta-19
Pseudomonas aeruginosa [49] = assay type: functional; settings: isolate Paebeta-07; remark: listed apart in the source
Pseudomonas aeruginosa [50] = assay type: functional; settings: isolate Paebeta-22
Pseudomonas aeruginosa [51] = assay type: functional; settings: isolate Paebeta-06; remark: listed apart in the source
Pseudomonas aeruginosa [52] = assay type: functional; settings: isolate Paebeta-19; remark: listed apart in the source
Pseudomonas aeruginosa [53] = assay type: functional; settings: isolate Paebeta-03; remark: listed apart in the source
Pseudomonas aeruginosa [54] = assay type: functional; settings: isolate Paebeta-21; remark: listed apart in the source
Pseudomonas aeruginosa [55] = assay type: functional; settings: isolate Paebeta-31; remark: listed apart in the source
Pseudomonas aeruginosa [56] = assay type: functional; settings: isolate Paebeta-11; remark: listed apart in the source
Pseudomonas aeruginosa [57] = assay type: functional; settings: isolate Paebeta-23
Pseudomonas aeruginosa [58] = assay type: functional; settings: isolate Paebeta-02; remark: listed apart in the source
Pseudomonas aeruginosa [59] = assay type: functional; settings: isolate Paebeta-24; remark: listed apart in the source
Pseudomonas aeruginosa [60] = assay type: functional; settings: isolate Paebeta-22; remark: listed apart in the source
Pseudomonas aeruginosa [61] = assay type: functional; settings: isolate Paebeta-23; remark: listed apart in the source
Pseudomonas aeruginosa [62] = assay type: functional; settings: isolate Paebeta-17; remark: listed apart in the source
Pseudomonas aeruginosa [63] = assay: microbe, parasite or virus in culture; settings: isolate Paebeta-12
Description: Antibacterial activity against mexB, mexY and mexD expressing Pseudomonas aeruginosa isolate Paebeta-12 harboring A residue at 105 position in PDC- 2 and polymorphic OprD gene by Etest method in presence of cloxacillin

Pseudomonas aeruginosa [64] = assay type: functional; settings: isolate Paebeta-27; remark: listed apart in the source

In the case of `CC(C)(O/N=C(\C(=O)N[C@@H]1C(=O)N2C(C(=O)[O-])=C(C[n+]3ccccc3)CS[C@H]12)c1csc(N)n1)C(=O)O` [CEFTAZIDIME], the MIC (Pseudomonas aeruginosa [1]) is reported as 2 µg/mL (≈ 3.66 µM), the MIC (Pseudomonas aeruginosa [2]) is reported as 0.12 µg/mL (≈ 0.22 µM) and the MIC (Pseudomonas aeruginosa [3]) is reported as 32 µg/mL (≈ 58.5 µM). It also gave an MIC (Pseudomonas aeruginosa [4]) of 128 µg/mL (≈ 234 µM), an MIC (Pseudomonas aeruginosa [5]) of 1 µg/mL (≈ 1.83 µM) and an MIC (Pseudomonas aeruginosa [6]) of 2 µg/mL (≈ 3.66 µM). It also gave an MIC (Pseudomonas aeruginosa [7]) of 16 µg/mL (≈ 29.3 µM), an MIC (Pseudomonas aeruginosa [8]) of 8 µg/mL (≈ 14.6 µM) and an MIC (Pseudomonas aeruginosa [9]) of 4 µg/mL (≈ 7.32 µM). For the same compound, the MIC (Pseudomonas aeruginosa [10]) was 4 µg/mL (≈ 7.32 µM), the MIC (Pseudomonas aeruginosa [11]) was 32 µg/mL (≈ 58.5 µM) and the MIC (Pseudomonas aeruginosa [12]) was 4 µg/mL (≈ 7.32 µM). The MIC (Pseudomonas aeruginosa [13]) was 16 µg/mL (≈ 29.3 µM), the MIC (Pseudomonas aeruginosa [14]) was 2 µg/mL (≈ 3.66 µM) and the MIC (Pseudomonas aeruginosa [15]) was 16 µg/mL (≈ 29.3 µM). It also gave an MIC (Pseudomonas aeruginosa [16]) of 4 µg/mL (≈ 7.32 µM), an MIC (Pseudomonas aeruginosa [17]) of 2 µg/mL (≈ 3.66 µM) and an MIC (Pseudomonas aeruginosa [18]) of 64 µg/mL (≈ 117 µM). The MIC (Pseudomonas aeruginosa [19]) was 32 µg/mL (≈ 58.5 µM), the MIC (Pseudomonas aeruginosa [20]) was 16 µg/mL (≈ 29.3 µM) and the MIC (Pseudomonas aeruginosa [21]) was 8 µg/mL (≈ 14.6 µM). For the same compound, the MIC (Pseudomonas aeruginosa [22]) was 8 µg/mL (≈ 14.6 µM), the MIC (Pseudomonas aeruginosa [23]) was 2 µg/mL (≈ 3.66 µM) and the MIC (Pseudomonas aeruginosa [24]) was 8 µg/mL (≈ 14.6 µM). For the same compound, the MIC (Pseudomonas aeruginosa [25]) was 32 µg/mL (≈ 58.5 µM), the MIC (Pseudomonas aeruginosa [26]) was 32 µg/mL (≈ 58.5 µM) and the MIC (Pseudomonas aeruginosa [27]) was 4 µg/mL (≈ 7.32 µM). The MIC (Pseudomonas aeruginosa [28]) was 16 µg/mL (≈ 29.3 µM), the MIC (Pseudomonas aeruginosa [29]) was 16 µg/mL (≈ 29.3 µM) and the MIC (Pseudomonas aeruginosa [30]) was 16 µg/mL (≈ 29.3 µM). The MIC (Pseudomonas aeruginosa [31]) was 4 µg/mL (≈ 7.32 µM), the MIC (Pseudomonas aeruginosa [32]) was 8 µg/mL (≈ 14.6 µM) and the MIC (Pseudomonas aeruginosa [33]) was 8 µg/mL (≈ 14.6 µM). For the same compound, the MIC (Pseudomonas aeruginosa [34]) was 32 µg/mL (≈ 58.5 µM), the MIC (Pseudomonas aeruginosa [35]) was 16 µg/mL (≈ 29.3 µM) and the MIC (Pseudomonas aeruginosa [36]) was 16 µg/mL (≈ 29.3 µM). The MIC (Pseudomonas aeruginosa [37]) was 32 µg/mL (≈ 58.5 µM), the MIC (Pseudomonas aeruginosa [38]) was 32 µg/mL (≈ 58.5 µM) and the MIC (Pseudomonas aeruginosa [39]) was 2 µg/mL (≈ 3.66 µM). For the same compound, the MIC (Pseudomonas aeruginosa [40]) was 16 µg/mL (≈ 29.3 µM), the MIC (Pseudomonas aeruginosa [41]) was 32 µg/mL (≈ 58.5 µM) and the MIC (Pseudomonas aeruginosa [42]) was 2 µg/mL (≈ 3.66 µM). The MIC (Pseudomonas aeruginosa [43]) was 8 µg/mL (≈ 14.6 µM), the MIC (Pseudomonas aeruginosa [44]) was 8 µg/mL (≈ 14.6 µM) and the MIC (Pseudomonas aeruginosa [45]) was 8 µg/mL (≈ 14.6 µM). For the same compound, the MIC (Pseudomonas aeruginosa [46]) was 32 µg/mL (≈ 58.5 µM), the MIC (Pseudomonas aeruginosa [47]) was 8 µg/mL (≈ 14.6 µM) and the MIC (Pseudomonas aeruginosa [48]) was 4 µg/mL (≈ 7.32 µM). For the same compound, the MIC (Pseudomonas aeruginosa [49]) was 2 µg/mL (≈ 3.66 µM), the MIC (Pseudomonas aeruginosa [50]) was 16 µg/mL (≈ 29.3 µM) and the MIC (Pseudomonas aeruginosa [51]) was 2 µg/mL (≈ 3.66 µM). It also gave an MIC (Pseudomonas aeruginosa [52]) of 8 µg/mL (≈ 14.6 µM), an MIC (Pseudomonas aeruginosa [53]) of 16 µg/mL (≈ 29.3 µM) and an MIC (Pseudomonas aeruginosa [54]) of 32 µg/mL (≈ 58.5 µM). It also gave an MIC (Pseudomonas aeruginosa [55]) of 16 µg/mL (≈ 29.3 µM), an MIC (Pseudomonas aeruginosa [56]) of 16 µg/mL (≈ 29.3 µM) and an MIC (Pseudomonas aeruginosa [57]) of 64 µg/mL (≈ 117 µM). The MIC (Pseudomonas aeruginosa [58]) was 8 µg/mL (≈ 14.6 µM), the MIC (Pseudomonas aeruginosa [59]) was 64 µg/mL (≈ 117 µM) and the MIC (Pseudomonas aeruginosa [60]) was 1 µg/mL (≈ 1.83 µM). For the same compound, the MIC (Pseudomonas aeruginosa [61]) was 8 µg/mL (≈ 14.6 µM), the MIC (Pseudomonas aeruginosa [62]) was 8 µg/mL (≈ 14.6 µM) and the MIC (Pseudomonas aeruginosa [63]) was 1 µg/mL (≈ 1.83 µM). For the same compound, the MIC (Pseudomonas aeruginosa [64]) was 4 µg/mL (≈ 7.32 µM).
